Test system: beet armyworm (Spodoptera exigua)
Assay: Test D: control of beet armyworm on corn plant, foliar spray
Format: in vivo
Settings: sprayed at 50 ppm, 1-day-old larvae, 6 days, visual rating
Procedure: Test compounds were formulated using a solution containing 10% acetone, 90% water and 300 ppm X-77® Spreader Lo-Foam Formula non-ionic surfactant containing alkylarylpolyoxyethylene, free fatty acids, glycols and isopropanol (Loveland Industries, Inc., Greely, Colo. USA), unless otherwise indicated. The formulated compounds were applied in 1 mL of liquid through a SUJ2 atomizer nozzle with ⅛ JJ custom body (Spraying Systems Co. Wheaton, Ill., USA) positioned 1.27 cm (0.5 inches) above the top of each test unit. All experimental compounds in these tests were sprayed at 250 ppm (or lower) and replicated three times. After spraying of the formulated test compound, each test unit was allowed to dry for 1 hour and then a black, screened cap was placed on top. The test units were held for 6 days in a growth chamber at 25° C. and 70% relative humidity. Plant feeding damage was then visually assessed based on foliage consumed.
For evaluating control of beet armyworm (Spodoptera exigua) the test unit consisted of a small open container with a 4-5-day-old corn plant inside. This was pre-infested (using a core sampler) with 10-15 1-day-old larvae on a piece of insect diet.
Test compounds were formulated and sprayed at 250 ppm (or lower) as described for Test A. The applications were replicated three times. […]

O=C(Nc1c(F)cc(F)cc1Br)c1cc(Br)nn1-c1ncccc1Cl [Compound 7, N-(2-bromo-4,6-difluorophenyl)-1-(3-chloro-2-pyridinyl)-3-bromo-1H-pyrazole-5-carboxamide]
feeding damage (plant protection): ≤ 20%
